Numbers after ± are expanded uncertainties.
What was measured:
[1] = Molar enthalpy of transition or fusion; conditions: Crystal; DSC
[2] = Crystal; DTA

CC(=O)CCc1ccc(O)cc1 [4-(4-hydroxyphenyl)butan-2-one]
Molar enthalpy of transition or fusion [1]: 5.9 ± 0.143 kcal/mol | Normal melting temperature [2]: 82 ± 0.6 °C

From the NIST ThermoML archive (doi:10.1007/s10765-017-2323-6)
